Data set [1] deals with Y2746 OE AfCYP51A AfCPR AfERG6. The data set is described as follows: MIC80 determination, strain Y2746. The data set is classed as cell-based, S. cerevisiae. The note with it: Saccharomyces cerevisiae. As to the method: (§1) Cells were seeded at an OD600 nm of 0.005 (1.5 × 10^4 CFU), and the plates were incubated at 30 °C with shaking at 200 rpm for 48 h for S. cerevisiae strains and 24 h for C. albicans . Cell growth was assessed by measuring the OD600 nm using a Synergy 2 multimode plate reader (BioTek Instruments, VT, USA). Each MIC80 was determined using triplicate measurements for pools of 4 clones of each strain in three separate experiments.

For another data set, the system named is Y71 SC5314. The data set is described as follows: MIC80 determination, C. albicans clinical isolate Y71 SC5314. The data set is classed as cell-based. The note with it: Candida albicans; C. albicans clinical isolate Y71 SC5314; pH 7, 24 h. As to the method: as §1
A further data set relates to C. albicans. On the set-up: method as in number not given. The note with it: ref number not given; cited from earlier work.
A further data set has as its target CaCYP51 Y132F (Candida albicans, UniProt P10613, Y132F). Particulars: footnote b; ref number not given; cited from earlier work.
Another data set deals with Y2721 OE CpCYP51. The data set is described as follows: MIC80 determination, strain Y2721. Particulars: Saccharomyces cerevisiae. Format: cell-based, S. cerevisiae. How it is done: as §1
For data set [2], the target named is T1, CaCYP51 Y132H + K143R (Candida albicans, UniProt P10613, K143R/Y132H). Particulars: footnote b; ref number not given; cited from earlier work.
T1 sequence (P10613 whole entry Y132H/K143R): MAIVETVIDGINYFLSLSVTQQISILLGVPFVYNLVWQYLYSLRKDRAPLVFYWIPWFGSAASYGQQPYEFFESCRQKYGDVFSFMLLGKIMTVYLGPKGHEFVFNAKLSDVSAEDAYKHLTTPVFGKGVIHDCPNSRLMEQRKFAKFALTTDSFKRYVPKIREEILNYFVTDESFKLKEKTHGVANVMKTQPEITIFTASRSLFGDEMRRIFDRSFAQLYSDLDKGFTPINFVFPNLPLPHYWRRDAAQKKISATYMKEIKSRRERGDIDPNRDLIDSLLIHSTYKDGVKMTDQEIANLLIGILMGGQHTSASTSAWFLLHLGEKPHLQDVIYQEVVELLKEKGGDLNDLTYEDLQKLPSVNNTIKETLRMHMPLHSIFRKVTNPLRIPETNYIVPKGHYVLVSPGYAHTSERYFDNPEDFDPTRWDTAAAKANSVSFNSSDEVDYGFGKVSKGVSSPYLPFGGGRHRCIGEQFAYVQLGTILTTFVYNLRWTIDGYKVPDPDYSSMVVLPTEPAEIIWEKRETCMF
A further data set has as its system Y2649 OE CYP51 F1 RaCPR. The data set is described as follows: MIC80 determination, strain Y2649. Format: cell-based, S. cerevisiae. The note with it: Saccharomyces cerevisiae. How it is done:
as §1

A further data set deals with Y570 OE CaCDR1B. The data set is described as follows: MIC80 determination, strain Y570. Format: cell-based, S. cerevisiae. The note with it: Saccharomyces cerevisiae, 48 h, pH 6.8. How it is done: as §1
A further data set concerns Y2768 OE CauCYP51 Y132F. As to the kind of experiment: MIC80 determination, strain Y2768. The data set is classed as cell-based, S. cerevisiae. The note with it: Saccharomyces cerevisiae. As to the method:
as §1

A further data set concerns 2711 CnCYP51 OE CnCPR. As to the kind of experiment: MIC80 determination, strain 2711. The data set is classed as cell-based, S. cerevisiae. The note with it: Saccharomyces cerevisiae. As to the method: as §1
The test system of another data set is Y611 FHB3. As to the kind of experiment: MIC80 determination, C. albicans clinical isolate Y611 FHB3. Particulars: Candida albicans, 24 h, pH 7. The data set is classed as cell-based. As to the method: as §1
Another data set concerns Y2769 OE CauCYP51 K143R. The data set is described as follows: MIC80 determination, strain Y2769. The data set is classed as cell-based, S. cerevisiae. Particulars: Saccharomyces cerevisiae. As to the method:
as §1

For a further data set, the system named is Y2459 OE CaCYP51 CaCpr. The data set is described as follows: MIC80 determination, strain Y2459. Format: cell-based, S. cerevisiae. The note with it: Saccharomyces cerevisiae, 48 h, pH 6.8. How it is done: as §1
The test system of a further data set is Y610 FHB1. The data set is described as follows: MIC80 determination, C. albicans clinical isolate Y610 FHB1. Format: cell-based. Particulars: Candida albicans; C. albicans clinical isolate Y610 FHB1 (weakly expresses CaCDR1); pH 7, 24 h. How it is done: as §1
The test system of a further data set is Y2765 OE CauMDR1. The data set is described as follows: MIC80 determination, strain Y2765. The data set is classed as cell-based, S. cerevisiae. The note with it: Saccharomyces cerevisiae. How it is done:
as §1

Another data set deals with Y2300 OE ScCYP51. The data set is described as follows: MIC80 determination, strain Y2300. Format: cell-based, S. cerevisiae. The note with it: Saccharomyces cerevisiae, 48 h, pH 6.8. How it is done: as §1
For the next data set, the system named is Y2716 OE CpCYP51 Y132F. The data set is described as follows: MIC80 determination, strain Y2716. The data set is classed as cell-based, S. cerevisiae. Particulars: Saccharomyces cerevisiae. How it is done: as §1
For another data set, the system named is MCF-10A cells. The data set is described as follows: Viability (CellTiter Blue) assay. The data set is classed as cell-based, human. The note with it: 48 h, 10 μM to 1 pM. As to the method:
Human epithelial breast cells, MCF-10A, were routinely cultured in DMEM/F-12 (Fisher Scientific, Loughborough, UK) containing 5% heat-inactivated horse serum (ThermoFisher Scientific, UK), 20 ng/mL hEGF (Merck Life Science, Dorset, UK), 500 ng/mL hydrocortisone (Merck Life Science, Dorset, UK) and 10 μg/mL insulin (Merck Life Science, Dorset, UK) under tissue culture conditions (37 °C, 5% CO2 in a humidified incubator). Cells were passaged upon reaching confluency using 0.25% Trypsin/EDTA (Fisher Scientific, Loughborough, UK) for a maximum of 15 passages from defrosting. […].
Cells were seeded in 100 μL of complete medium per well in a black, flat-bottomed, 96-well tissue-culture-treated plate (Fisher Scientific, Loughborough, UK) at a density of 4000 cells/well and incubated under tissue culture conditions for 24 h. Cells were then treated by mixing in an additional 100 μL of drug/diluent control in complete medium to give final concentrations of 10 μM–1 pM. DMSO was used as a vehicle control, and as a positive toxic control, staurosporine was added at a final concentration of 10 μM. Cells were then incubated for 48 h under tissue culture conditions before the treatments were replaced with fresh media before performing the CellTiter Blue assay (Promega, Southampton, UK) was performed following the manufacturer's instructions. […]
On the technique in general: Alamar Blue is a resazurin reagent that responds to reducing activity.

For a further data set, the system named is Y2513 OE ScCYP51 Y140H. As to the kind of experiment: MIC80 determination, strain Y2513. The data set is classed as cell-based, S. cerevisiae. The note with it: Saccharomyces cerevisiae, 48 h, pH 6.8. How it is done:
as §1

In a further data set the test system is Y2374 OE CgCYP51. As to the kind of experiment: MIC80 determination, strain Y2374. Particulars: Saccharomyces cerevisiae. The data set is classed as cell-based, S. cerevisiae. How it is done:
as §1

The subject of a further data set is Y2301 OE ScCYP51 Y140F. The data set is described as follows: MIC80 determination, strain Y2301. Format: cell-based, S. cerevisiae. Particulars: Saccharomyces cerevisiae, 48 h, pH 6.8. As to the method: as §1
The subject of the next data set is Y2766 OE CauCDR1. As to the kind of experiment: MIC80 determination, strain Y2766. The data set is classed as cell-based, S. cerevisiae. Particulars: Saccharomyces cerevisiae. As to the method: as §1
The subject of the next data set is Y2767 OE CauCYP51. The data set is described as follows: MIC80 determination, strain Y2767. The data set is classed as cell-based, S. cerevisiae. Particulars: Saccharomyces cerevisiae. How it is done:
as §1

Another data set deals with Y2651 OE CYP51 F5 RaCPR. As to the kind of experiment: MIC80 determination, strain Y2651. The data set is classed as cell-based, S. cerevisiae. Particulars: Saccharomyces cerevisiae. How it is done:
as §1

For a further data set, the system named is Y525 OE CaMDR1a. The data set is described as follows: MIC80 determination, strain Y525. Format: cell-based, S. cerevisiae. The note with it: Saccharomyces cerevisiae, 48 h, pH 6.8. How it is done: as §1
The next data set deals with Y2411 Endog. ScCYP51. The data set is described as follows: MIC80 determination, strain Y2411. The note with it: Saccharomyces cerevisiae; strain Y2411 Endog. ScCYP51; SD pH 6.8, 30 °C, 48 h. The data set is classed as cell-based, S. cerevisiae. How it is done:
as §1

For data set [3], the system named is Y2747 OE AfCYP51B AfCPR AfERG6. The data set is described as follows: MIC80 determination, strain Y2747. The note with it: Saccharomyces cerevisiae. Format: cell-based, S. cerevisiae. As to the method: as §1
The next data set deals with Y433 OE CgCDR1. As to the kind of experiment: MIC80 determination, strain Y433. Format: cell-based, S. cerevisiae. The note with it: Saccharomyces cerevisiae. As to the method: as §1
In the next data set the test system is Y1. The data set is described as follows: MIC80 determination, C. albicans clinical isolate Y1. Format: cell-based. The note with it: Candida albicans, pH 7, 24 h. How it is done:
as §1

In a further data set the target is CYP3A4 (Homo sapiens, UniProt P08684). The arrangement: method as in numbers not given. Particulars: literature values for azole antifungals; ref numbers not given; cited from earlier work.
CYP3A4, sequence (P08684 whole entry): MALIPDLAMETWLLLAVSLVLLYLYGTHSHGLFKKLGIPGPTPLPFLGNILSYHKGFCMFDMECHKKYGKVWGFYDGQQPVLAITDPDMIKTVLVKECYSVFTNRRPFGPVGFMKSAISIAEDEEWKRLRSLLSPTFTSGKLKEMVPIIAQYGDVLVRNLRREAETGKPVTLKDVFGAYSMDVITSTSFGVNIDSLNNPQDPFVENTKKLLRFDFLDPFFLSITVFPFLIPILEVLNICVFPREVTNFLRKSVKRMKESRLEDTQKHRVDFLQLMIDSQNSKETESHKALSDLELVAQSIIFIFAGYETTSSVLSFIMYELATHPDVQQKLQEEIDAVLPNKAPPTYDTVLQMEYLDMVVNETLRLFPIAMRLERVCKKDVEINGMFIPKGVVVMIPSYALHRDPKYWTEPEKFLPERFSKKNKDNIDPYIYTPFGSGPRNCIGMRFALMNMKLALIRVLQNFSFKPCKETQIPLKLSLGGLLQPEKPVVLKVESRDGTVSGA
In the next data set the target is wild-type CaCYP51 (Candida albicans, UniProt P10613). The data set is described as follows: Reconstituted CYP51 activity assay, wild type. The data set is classed as biochemical, C. albicans. The note with it: 1 μM CaCyp51, 50 μM lanosterol; duplicate, mean ± SD. As to the method:
(§2) The reconstituted CYP51 assay previously described contained 1 μM CaCyp51, 2 μM Homo sapiens cytochrome P450 reductase and 50 μM lanosterol in a final volume of 500 μL. After the addition of azole in DMSO (2.5 μL), reactions were incubated at 37 °C for 10 min prior to initiation by the addition of 100 μL 20 mM β-NADPH-Na4. Sterol substrates and products were extracted with ethyl acetate, derivatized with N,O-bis(trimethylsilyl)-trifluoroacetamide (BSTFA)–trimethylchlorosilane (TMCS) (99:1) in the presence of anhydrous pyridine, and analyzed by GC/MS as described previously. IC50 determinations were performed in duplicate. Nonlinear regression of inhibitor concentration vs normalized response was calculated by GraphPad Prism 10.4.0 for Windows (GraphPad Software, Boston, Massachusetts, USA, www.graphpad.com).

In data set [4] the target is T1, CaCYP51 Y132H + K143R. The data set is described as follows: Reconstituted CYP51 activity assay, Y132H + K143R. Format: biochemical, C. albicans. Particulars: 1 μM CaCyp51, 50 μM lanosterol; duplicate, mean ± SD. As to the method: as §2

Where two headings read alike, the source gives them in different places.

The values below come from article PMC12169614, “Exploring Long Arm Amide-Linked Side Chains in the Design of Antifungal Azole Inhibitors of Sterol 14α-Demethylase (CYP51)” (Journal of Medicinal Chemistry, 2025).

CaCYP51 Y132F, sequence (P10613 whole entry Y132F): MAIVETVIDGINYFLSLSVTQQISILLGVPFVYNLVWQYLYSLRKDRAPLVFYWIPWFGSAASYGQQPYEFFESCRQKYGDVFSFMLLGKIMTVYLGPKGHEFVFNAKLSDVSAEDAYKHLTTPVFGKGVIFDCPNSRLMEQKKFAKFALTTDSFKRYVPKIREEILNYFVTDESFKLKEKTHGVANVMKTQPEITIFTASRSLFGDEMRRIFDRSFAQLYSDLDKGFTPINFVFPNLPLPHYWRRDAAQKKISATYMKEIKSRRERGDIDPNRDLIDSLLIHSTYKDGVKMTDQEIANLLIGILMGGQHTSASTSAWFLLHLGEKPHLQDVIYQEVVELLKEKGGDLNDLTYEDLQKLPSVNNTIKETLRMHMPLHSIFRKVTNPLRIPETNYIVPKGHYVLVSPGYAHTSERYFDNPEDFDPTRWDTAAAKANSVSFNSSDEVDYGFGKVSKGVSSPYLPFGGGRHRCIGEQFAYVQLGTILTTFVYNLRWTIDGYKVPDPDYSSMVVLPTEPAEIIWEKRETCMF
wild-type CaCYP51, sequence (P10613 whole entry): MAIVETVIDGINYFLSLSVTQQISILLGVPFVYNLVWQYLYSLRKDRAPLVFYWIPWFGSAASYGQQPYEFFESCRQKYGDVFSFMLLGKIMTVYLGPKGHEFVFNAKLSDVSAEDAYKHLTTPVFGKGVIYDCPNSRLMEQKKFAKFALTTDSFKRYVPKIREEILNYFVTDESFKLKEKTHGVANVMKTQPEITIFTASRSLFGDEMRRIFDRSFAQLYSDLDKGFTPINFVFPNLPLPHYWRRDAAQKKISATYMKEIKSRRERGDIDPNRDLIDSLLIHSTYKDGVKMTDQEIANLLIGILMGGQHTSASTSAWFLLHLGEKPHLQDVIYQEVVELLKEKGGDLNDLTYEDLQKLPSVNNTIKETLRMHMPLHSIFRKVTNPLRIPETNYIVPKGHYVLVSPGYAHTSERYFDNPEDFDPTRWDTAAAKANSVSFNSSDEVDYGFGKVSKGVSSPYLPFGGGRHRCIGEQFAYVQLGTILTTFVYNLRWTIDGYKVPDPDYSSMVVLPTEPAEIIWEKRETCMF

For the molecule `CC[C@@H]([C@H](C)O)n1ncn(-c2ccc(N3CCN(c4ccc(OC[C@@H]5CO[C@@](Cn6cncn6)(c6ccc(F)cc6F)C5)cc4)CC3)cc2)c1=O` [PCZ, posaconazole, reference compound], the MIC80 (in general, an inhibitory concentration at the 80% level, which refers to growth in some studies and to a panel of isolates in others) was 0.033 ± 0.014 µM in data set [1]; 0.073 µM in the data set with Y71 SC5314; 0.122 ± 0.037 µM in the data set on Y2721 OE CpCYP51; 0.1 µM with Y2649 OE CYP51 F1 RaCPR; > 25 µM with Y570 OE CaCDR1B; 0.168 ± 0.006 µM in the data set on Y2768 OE CauCYP51 Y132F. In addition, the MIC80 in the data set with 2711 CnCYP51 OE CnCPR came to 0.035 ± 0.015 µM; with Y611 FHB3 it was 0.53 µM; with Y2769 OE CauCYP51 K143R it was 0.117 ± 0.005 µM; in the data set with Y2459 OE CaCYP51 CaCpr it was 0.22 ± 0.07 µM; in the data set with Y610 FHB1 it was 0.151 ± 0.016 µM; with Y2765 OE CauMDR1, 0.096 ± 0.003 µM. Also, the MIC80 is 2 ± 0.05 µM in the data set on Y2300 OE ScCYP51; 0.135 ± 0.058 µM in the data set with Y2716 OE CpCYP51 Y132F; 0.147 ± 0.057 µM in the data set with Y2513 OE ScCYP51 Y140H; 0.332 µM in the data set on Y2374 OE CgCYP51; 0.191 ± 0.041 µM in the data set with Y2301 OE ScCYP51 Y140F; 0.971 ± 0.049 µM in the data set with Y2766 OE CauCDR1. For the same molecule, the MIC80 turned out to be 0.196 ± 0.022 µM with Y2767 OE CauCYP51; 0.054 ± 0.011 µM with Y2651 OE CYP51 F5 RaCPR; 0.218 µM in the data set on Y525 OE CaMDR1a; 0.097 ± 0.04 µM in the data set on Y2411 Endog. ScCYP51; 0.07 ± 0.024 µM in data set [3]; 23.8 µM in the data set with Y433 OE CgCDR1. Moreover, the MIC80 with Y1 amounted to 0.07 µM. For the same molecule, the MIC (as a rule, the smallest concentration in the dilution series that meets the test's criterion for growth inhibition) in the data set on C. albicans is ≤ 0.03 µg/mL. The IC50 – broadly, the concentration needed to halve the response being measured – was 343 ± 20 nM at CaCYP51 Y132F and 196 ± 7 nM on CaCYP51 Y132H + K143R [2]. Also, the “cell viability (tolerance in words)” value with MCF-10A cells is “no difference observed”.

For the molecule `O[C@@](Cn1cnnn1)(c1ccc(F)cc1F)C(F)(F)c1ccc(-c2ccc(OCC(F)(F)F)cc2)cn1` [VT-1161, Oteseconazole], the IC50 at CYP3A4 is 140000 nM.

As to `OC(Cn1cncn1)(Cn1cncn1)c1ccc(F)cc1F` [FLC, fluconazole, reference compound], the IC50 on CaCYP51 Y132F was 606 ± 66 nM; against wild-type CaCYP51 it was 335 ± 17 nM; at CaCYP51 Y132H + K143R [4], 25700 ± 3550 nM.
